{
  "source": "PubChem BioAssay AID1845204",
  "about": "(Molecular Pharmacology Branch, DTP, NCI, 2023)",
  "test_system": "HSSY-II tumor spheroid viability",
  "assay": "Anticancer human tumor HSSY-II cell line growth inhibition;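 further: spheroids exposed to compounds for seven days before reading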;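 on viability, T/C: percent of DMSO vehicle control viability so 100% = untreated level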",
  "conditions": "spheroids with HUVEC and MSC; for pIC50: curve of first compound; for viability, T/C: stronger effect = lower value",
  "summary_of_the_method": "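Complex tumor spheroids combined malignant cells with endothelial cells and mesenchymal stem cells. DNA-damaging drugs and DNA repair inhibitors were tested alone and in combination, at half-log dilutions down from clinical Cmax (top 10 microM if Cmax unknown), 0.25% DMSO final.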",
  "note": "pIC50: −log10 of the molar value.",
  "data": [
    {"smiles": "Cc1sc2c(c1C)C(c1ccc(Cl)cc1)=NC(CC(=O)Nc1ccc(O)cc1)c1nnc(C)n1-2", "note": "(stereo not given) + CC[C@@]1(O)C(=O)OCc2c1cc1n(c2=O)Cc2cc3c(CN(C)C)c(O)ccc3nc2-1", "values": [
      {"measurement": "pIC50", "setting": "second compound 0.003 µM", "value": 7.04},
      {"measurement": "pIC50", "setting": "second compound 0.00949 µM", "value": "> 8.02"},
      {"measurement": "pIC50", "setting": "second compound 0.03 µM", "value": "> 8.02"},
      {"measurement": "pIC50", "setting": "second compound 0.0949 µM", "value": "> 8.02"},
      {"measurement": "pIC50", "setting": "second compound 0.3 µM", "value": "> 8.02"},
      {"measurement": "viability, T/C", "setting": "second compound 0.003 µM, first compound 0.00949 µM", "value": 78.6, "unit": "%"},
      {"measurement": "viability, T/C", "setting": "second compound 0.003 µM, first compound 0.03 µM", "value": 70.5, "unit": "%"},
      {"measurement": "viability, T/C", "setting": "second compound 0.003 µM, first compound 0.0949 µM", "value": 49.2, "unit": "%"},
      {"measurement": "viability, T/C", "setting": "second compound 0.003 µM, first compound 0.3 µM", "value": 23.5, "unit": "%"},
      {"measurement": "viability, T/C", "setting": "second compound 0.003 µM, first compound 0.949 µM", "value": 9.78, "unit": "%"},
      {"measurement": "viability, T/C", "setting": "second compound 0.003 µM, first compound 3 µM", "value": 7.01, "unit": "%"},
      {"measurement": "viability, T/C", "setting": "second compound 0.00949 µM, first compound 0.00949 µM", "value": 37.7, "unit": "%"},
      {"measurement": "viability, T/C", "setting": "second compound 0.00949 µM, first compound 0.03 µM", "value": 35.2, "unit": "%"},
      {"measurement": "viability, T/C", "setting": "second compound 0.00949 µM, first compound 0.0949 µM", "value": 21.8, "unit": "%"},
      {"measurement": "viability, T/C", "setting": "second compound 0.00949 µM, first compound 0.3 µM", "value": 15.4, "unit": "%"},
      {"measurement": "viability, T/C", "setting": "second compound 0.00949 µM, first compound 0.949 µM", "value": 8.01, "unit": "%"},
      {"measurement": "viability, T/C", "setting": "second compound 0.00949 µM, first compound 3 µM", "value": 4.79, "unit": "%"},
      {"measurement": "viability, T/C", "setting": "second compound 0.03 µM, first compound 0.00949 µM", "value": 7.22, "unit": "%"},
      {"measurement": "viability, T/C", "setting": "second compound 0.03 µM, first compound 0.03 µM", "value": 6.32, "unit": "%"},
      {"measurement": "viability, T/C", "setting": "second compound 0.03 µM, first compound 0.0949 µM", "value": 6.41, "unit": "%"},
      {"measurement": "viability, T/C", "setting": "second compound 0.03 µM, first compound 0.3 µM", "value": 5.13, "unit": "%"},
      {"measurement": "viability, T/C", "setting": "second compound 0.03 µM, first compound 0.949 µM", "value": 2.41, "unit": "%"},
      {"measurement": "viability, T/C", "setting": "second compound 0.03 µM, first compound 3 µM", "value": 2.5, "unit": "%"},
      {"measurement": "viability, T/C", "setting": "second compound 0.0949 µM, first compound 0.00949 µM", "value": 5.51, "unit": "%"},
      {"measurement": "viability, T/C", "setting": "second compound 0.0949 µM, first compound 0.03 µM", "value": 5.61, "unit": "%"},
      {"measurement": "viability, T/C", "setting": "second compound 0.0949 µM, first compound 0.0949 µM", "value": 5.13, "unit": "%"},
      {"measurement": "viability, T/C", "setting": "second compound 0.0949 µM, first compound 0.3 µM", "value": 4.3, "unit": "%"},
      {"measurement": "viability, T/C", "setting": "second compound 0.0949 µM, first compound 0.949 µM", "value": 2.91, "unit": "%"},
      {"measurement": "viability, T/C", "setting": "second compound 0.0949 µM, first compound 3 µM", "value": 2.35, "unit": "%"},
      {"measurement": "viability, T/C", "setting": "second compound 0.3 µM, first compound 0.00949 µM", "value": 4.66, "unit": "%"},
      {"measurement": "viability, T/C", "setting": "second compound 0.3 µM, first compound 0.03 µM", "value": 4.16, "unit": "%"},
      {"measurement": "viability, T/C", "setting": "second compound 0.3 µM, first compound 0.0949 µM", "value": 4.31, "unit": "%"},
      {"measurement": "viability, T/C", "setting": "second compound 0.3 µM, first compound 0.3 µM", "value": 3.08, "unit": "%"},
      {"measurement": "viability, T/C", "setting": "second compound 0.3 µM, first compound 0.949 µM", "value": 1.91, "unit": "%"},
      {"measurement": "viability, T/C", "setting": "second compound 0.3 µM, first compound 3 µM", "value": 0.64, "unit": "%"}
    ]},
    {"smiles": "Cc1sc2c(c1C)C(c1ccc(Cl)cc1)=NC(CC(=O)Nc1ccc(O)cc1)c1nnc(C)n1-2", "note": "(stereo not given) + Cn1nnc2c(C(N)=O)ncn2c1=O", "values": [
      {"measurement": "pIC50", "setting": "second compound 1 µM", "value": 6.79},
      {"measurement": "pIC50", "setting": "second compound 3.16 µM", "value": 6.75},
      {"measurement": "pIC50", "setting": "second compound 10 µM", "value": 6.80},
      {"measurement": "pIC50", "setting": "second compound 31.6 µM", "value": 6.71},
      {"measurement": "pIC50", "setting": "second compound 100 µM", "value": 6.77},
      {"measurement": "viability, T/C", "setting": "second compound 1 µM, first compound 0.00949 µM", "value": 98.5, "unit": "%"},
      {"measurement": "viability, T/C", "setting": "second compound 1 µM, first compound 0.03 µM", "value": 85.1, "unit": "%"},
      {"measurement": "viability, T/C", "setting": "second compound 1 µM, first compound 0.0949 µM", "value": 64.7, "unit": "%"},
      {"measurement": "viability, T/C", "setting": "second compound 1 µM, first compound 0.3 µM", "value": 34.3, "unit": "%"},
      {"measurement": "viability, T/C", "setting": "second compound 1 µM, first compound 0.949 µM", "value": 19.3, "unit": "%"},
      {"measurement": "viability, T/C", "setting": "second compound 1 µM, first compound 3 µM", "value": 12.8, "unit": "%"},
      {"measurement": "viability, T/C", "setting": "second compound 3.16 µM, first compound 0.00949 µM", "value": 101, "unit": "%"},
      {"measurement": "viability, T/C", "setting": "second compound 3.16 µM, first compound 0.03 µM", "value": 90.6, "unit": "%"},
      {"measurement": "viability, T/C", "setting": "second compound 3.16 µM, first compound 0.0949 µM", "value": 65.9, "unit": "%"},
      {"measurement": "viability, T/C", "setting": "second compound 3.16 µM, first compound 0.3 µM", "value": 35.9, "unit": "%"},
      {"measurement": "viability, T/C", "setting": "second compound 3.16 µM, first compound 0.949 µM", "value": 21.6, "unit": "%"},
      {"measurement": "viability, T/C", "setting": "second compound 3.16 µM, first compound 3 µM", "value": 12, "unit": "%"},
      {"measurement": "viability, T/C", "setting": "second compound 10 µM, first compound 0.00949 µM", "value": 101, "unit": "%"},
      {"measurement": "viability, T/C", "setting": "second compound 10 µM, first compound 0.03 µM", "value": 92.9, "unit": "%"},
      {"measurement": "viability, T/C", "setting": "second compound 10 µM, first compound 0.0949 µM", "value": 62.3, "unit": "%"},
      {"measurement": "viability, T/C", "setting": "second compound 10 µM, first compound 0.3 µM", "value": 32.6, "unit": "%"},
      {"measurement": "viability, T/C", "setting": "second compound 10 µM, first compound 0.949 µM", "value": 20.1, "unit": "%"},
      {"measurement": "viability, T/C", "setting": "second compound 10 µM, first compound 3 µM", "value": 11.2, "unit": "%"},
      {"measurement": "viability, T/C", "setting": "second compound 31.6 µM, first compound 0.00949 µM", "value": 105, "unit": "%"},
      {"measurement": "viability, T/C", "setting": "second compound 31.6 µM, first compound 0.03 µM", "value": 98, "unit": "%"},
      {"measurement": "viability, T/C", "setting": "second compound 31.6 µM, first compound 0.0949 µM", "value": 69.3, "unit": "%"},
      {"measurement": "viability, T/C", "setting": "second compound 31.6 µM, first compound 0.3 µM", "value": 37.3, "unit": "%"},
      {"measurement": "viability, T/C", "setting": "second compound 31.6 µM, first compound 0.949 µM", "value": 18.7, "unit": "%"},
      {"measurement": "viability, T/C", "setting": "second compound 31.6 µM, first compound 3 µM", "value": 8.46, "unit": "%"},
      {"measurement": "viability, T/C", "setting": "second compound 100 µM, first compound 0.00949 µM", "value": 98.1, "unit": "%"},
      {"measurement": "viability, T/C", "setting": "second compound 100 µM, first compound 0.03 µM", "value": 89.5, "unit": "%"},
      {"measurement": "viability, T/C", "setting": "second compound 100 µM, first compound 0.0949 µM", "value": 68.7, "unit": "%"},
      {"measurement": "viability, T/C", "setting": "second compound 100 µM, first compound 0.3 µM", "value": 31.2, "unit": "%"},
      {"measurement": "viability, T/C", "setting": "second compound 100 µM, first compound 0.949 µM", "value": 13.2, "unit": "%"},
      {"measurement": "viability, T/C", "setting": "second compound 100 µM, first compound 3 µM", "value": 5.25, "unit": "%"}
    ]}
  ]
}
